Data: PubChem BioAssay (NCI)
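These data come from cells grown in 96-well plates and exposed to compound for 48 hours at five concentrations. At the TGI there is no net growth.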

Columns and labels:
Test in all cases: NCI tumour cell line growth inhibition, 48 h
[1] = system: ACHN renal
[2] = system: CCRF-CEM leukemia
[3] = system: HL-60(TB) leukemia
[4] = system: KM12 colon
[5] = system: NCI-H23 lung
[6] = system: NCI-H522 lung
[7] = system: SF-295 CNS
[8] = system: SK-MEL-2 melanoma
[9] = system: SK-MEL-5 melanoma
[10] = system: SR leukemia
[11] = system: NCI-H226 lung

| SMILES | TGI [1] | TGI [2] | TGI [3] | TGI [4] | TGI [5] | TGI [6] | TGI [7] | TGI [8] | TGI [9] | TGI [10] | TGI [11] |
| --- | --- | --- | --- | --- | --- | --- | --- | --- | --- | --- | --- |
| C/C=C/C=C/[C@H]1Cc2cc(O)cc(O)c2O1 | > 100 µM | > 100 µM | 92.8 µM | > 100 µM | > 100 µM | > 100 µM | > 100 µM | > 100 µM | > 100 µM | > 100 µM | – |
| CC1=NN(C(=O)c2ccc(Cl)cc2)C(=O)/C1=C/c1cccc(O)c1 | > 100 µM | > 100 µM | > 100 µM | > 100 µM | > 100 µM | > 100 µM | > 100 µM | > 100 µM | > 100 µM | – | > 100 µM |
| CCN(CC)CC(C)(C)C(=O)/C=C/c1ccc(C)cc1 | 27.9 µM | 19.2 µM | – | 19 µM | – | 8.93 µM | 26.1 µM | 25.7 µM | 29.1 µM | 26.8 µM | – |
| O=C(c1nsc(Cl)c1Cl)N1CCCCC1 | – | > 100 µM | > 100 µM | > 100 µM | > 100 µM | – | > 100 µM | – | > 100 µM | > 100 µM | > 100 µM |
| Cc1c(-c2ccccc2)n(C)c2cn[nH]c(=O)c12 | > 100 µM | > 100 µM | > 100 µM | > 100 µM | > 100 µM | > 100 µM | 65.1 µM | 48 µM | 31.8 µM | 70.9 µM | – |
| CCCCCCCCCCCCCCCCCC(=O)NCCCNCCCNC(=O)CCCCCCCCCCCCCCCCC | > 100 µM | > 100 µM | > 100 µM | – | > 100 µM | – | > 100 µM | – | > 100 µM | – | > 100 µM |
| Cc1cc2c3c(ccc4ncc(c43)CN2c2ccc(NS(C)(=O)=O)cc2)[nH]1 | > 100 µM | > 100 µM | > 100 µM | > 100 µM | > 100 µM | > 100 µM | > 100 µM | > 100 µM | > 100 µM | – | 78.3 µM |
| C[n+]1c2ccccc2c(NC(CCC(N)=O)C(=O)O)c2ccccc21 (centres undefined) | > 100 µM | – | > 100 µM | > 100 µM | > 100 µM | > 100 µM | > 100 µM | > 100 µM | > 100 µM | > 100 µM | > 100 µM |
| Cc1[nH]n(-c2ccccc2)c(=S)c1C(=O)c1ccccc1 | > 100 µM | 57 µM | > 100 µM | > 100 µM | > 100 µM | > 100 µM | > 100 µM | > 100 µM | > 100 µM | – | – |
| Cc1ccc2c(c1)NC(=O)C(N=[N+]=[N-])(c1ccccc1)C2=O (centres undefined) | > 100 µM | > 100 µM | 37.5 µM | 40 µM | 45.9 µM | 45.6 µM | 78.1 µM | 36.2 µM | 47.4 µM | 56.7 µM | – |
| CCC12C=CCN3CC[C@]4(C(=C(C(=O)OC)[C@@H]1Nc1ccn(C5OC(COC(C)=O)C(OC(C)=O)C5OC(C)=O)c(=O)n1)Nc1ccccc14)C32 (some centres undefined) | 8 µM | 13.2 µM | 12.6 µM | 2.54 µM | 3.43 µM | 7.17 µM | 10.2 µM | 5.58 µM | 8.1 µM | 10.2 µM | 8.25 µM |
| CCOc1ccc(N=Cc2cc(OC)c(OC)c(OC)c2)cc1 | > 100 µM | > 100 µM | > 100 µM | > 100 µM | > 100 µM | > 100 µM | > 100 µM | > 100 µM | > 100 µM | – | – |
| Cc1ccc(N2C(=O)/C(=c3\s/c(=C(/N)O)c(=N)n3-c3ccccc3)SC2=S)cc1 | > 100 µM | > 100 µM | > 100 µM | > 100 µM | > 100 µM | > 100 µM | > 100 µM | – | > 100 µM | – | > 100 µM |
| C(/COc1cccnc1)=N\NC1=NCCN1 | > 100 µM | > 100 µM | > 100 µM | > 100 µM | > 100 µM | > 100 µM | > 100 µM | > 100 µM | > 100 µM | > 100 µM | > 100 µM |
| CC1=CCC2(C#N)CCC1C2=O (centres undefined) | > 100 µM | > 100 µM | > 100 µM | > 100 µM | > 100 µM | > 100 µM | > 100 µM | > 100 µM | > 100 µM | > 100 µM | > 100 µM |
| CC(C)(C)C1CCC2c3c([nH]c4ccccc34)C3C(=O)N(c4ccc(Br)cc4)C(=O)C3C2C1 (centres undefined) | 35.7 µM | 39.8 µM | 29.5 µM | 53.8 µM | 38.1 µM | – | 63.1 µM | 54.6 µM | 62.2 µM | – | 36.1 µM |
| c1ccc2cc3n[se]nc3cc2c1 | > 100 µM | > 100 µM | > 100 µM | > 100 µM | > 100 µM | > 100 µM | > 100 µM | > 100 µM | > 100 µM | – | – |
| c1ccc(C2CC(N3CCOCC3)=Nc3ccccc3N2)cc1 (centres undefined) | > 100 µM | > 100 µM | > 100 µM | > 100 µM | > 100 µM | > 100 µM | > 100 µM | > 100 µM | > 100 µM | – | > 100 µM |
| CC(C)(C)OC(=O)C1/C(=C/CO)CN1C(=O)OC(C)(C)C (centres undefined) | > 100 µM | > 100 µM | > 100 µM | – | > 100 µM | – | > 100 µM | > 100 µM | > 100 µM | > 100 µM | – |
